ChEMBL document CHEMBL4425084, “Development of Heat Shock Protein (Hsp90) Inhibitors To Combat Resistance to Tyrosine Kinase Inhibitors through Hsp90-Kinase Interactions” (J Med Chem, 2016)

Key:
[1] = Cytotoxicity against human NB39 cells assessed as decrease in cell viability after 72 hrs by CellTiter-Glo luminescence assay; details: NB39, 72 h
cells = details: Homo sapiens, BaF3, 24 h
[2] = Inhibition of E13;A20 EML4-ALK variant (unknown origin) expressed in human NCI-H3122 cells assessed as decrease in cell viability after 72 hrs by CellTiter-Glo luminescence assay; type: cell-based; details: NCI-H3122, 72 h
[3] = Inhibition of E6a/b;A20 EML4-ALK (unknown origin) expressed in human NCI-H2228 cells assessed as decrease in cell viability after 72 hrs by CellTiter-Glo luminescence assay; details: NCI-H2228, 72 h
A-375 [4] = assay: animal or person; details: Mus musculus, A-375, iv, read-out: TGI
Description: Antitumor activity against vemurafenib-resistant human A375 cells xenografted in mouse assessed as tumor growth inhibition at 150 mg/kg, iv dosed as weekly treatment in presence of selumetinib

A-375 [5] = assay: Cytotoxicity against human A375 cells assessed as decrease in cell viability after 72 hrs by CellTiter-Glo luminescence assay; type: functional, cell-based; details: A-375, 72 h
Bcr/Abl fusion protein [6] = biological target: Bcr/Abl fusion protein (Homo sapiens, UniProt P00519, E255K); assay: Inhibition of imatinib-resistant BCR-ABL E255K mutant (unknown origin) expressed in mouse BA/F3 cells assessed as decrease in cell viability after 48 hrs by trypan blue exclusion assay; type: cell-based
Bcr/Abl fusion protein [7] = biological target: Bcr/Abl fusion protein (Homo sapiens, UniProt P00519); assay: Inhibition of BCR-ABL (unknown origin) expressed in mouse BA/F3 cells assessed as decrease in cell viability after 48 hrs by trypan blue exclusion assay; type: cell-based
Bcr/Abl fusion protein [8] = biological target: Bcr/Abl fusion protein (Homo sapiens, UniProt P00519, T315I); assay: Inhibition of imatinib-resistant BCR-ABL T315I mutant (unknown origin) expressed in mouse BA/F3 cells assessed as decrease in cell viability after 48 hrs by trypan blue exclusion assay; type: cell-based
Mus musculus [9] = assay: In vivo inhibition of BCR-ABL/T315I mutant expressed in bone marrow cells transplanted in mouse assessed as level of cells expressing gatekeeper mutation at 50 mg/kg once every 2 days measured after 28 days; type: functional; set-up: scale not given: the % may be the effect or the level left
NCI-H3122 = assay: Cytotoxicity against crizotinib-resistant human NCI-H3122 cells assessed as cell growth inhibition after 72 hrs by trypan blue exclusion assay; type: functional; details: NCI-H3122, 72 h
HCC827 = assay: Cytotoxicity against gefitinib-resistant human HCC827 cells assessed as inhibition of cell proliferation by MTS assay; type: functional, cell-based
Mus musculus [10] = assay: In vivo inhibition of BCR-ABL/T315I mutant expressed in bone marrow cells transplanted in mouse assessed as level of cells expressing gatekeeper mutation at 100 mg/kg, bid measured after 15 days; type: functional; set-up: scale not given: the % may be the effect or the level left
[11] = Toxicity in iv dosed NSCLC patient dosed weekly for 3 weeks on four week cycle during phase-1 clinical trial; type: organism-based; details: human, in vivo, 504 h
GIST48 = assay: Cytotoxicity against imatinib-resistant human GIST48 cells assessed as decrease in cell viability after 7 days by alamar blue assay; type: functional, cell-based; details: GIST48, 168 h
GIST430 = assay: Cytotoxicity against imatinib-resistant human GIST430 cells assessed as decrease in cell viability after 7 days by alamar blue assay; type: functional, cell-based; details: GIST430, 168 h
[12] = Toxicity in human H1650 cells expressing E746-A750 EGFR deletion mutant xenografted in mouse administered ip 3 times per week; type: organism-based; details: in vivo
[13] = Toxicity in human H1975 cells xenografted in mouse administered ip 3 times per week; type: organism-based; details: in vivo
[14] = Toxicity in human H3255 cells expressing L858R EGFR mutant xenografted in mouse administered ip 3 times per week; type: organism-based; details: in vivo
[15] = Cytotoxicity against HGF-induced erlotinib-resistant human Ma1 cells assessed as inhibition of cell growth after 72 hrs by MTT assay; type: functional, cell-based
PC-9 = assay: Cytotoxicity against HGF-induced erlotinib-resistant human PC9 cells assessed as inhibition of cell growth after 72 hrs by MTT assay; type: functional, cell-based; details: PC-9, 72 h

CC(C)c1cc(-c2n[nH]c(=O)n2-c2ccc3c(ccn3C)c2)c(O)cc1O [GANETESPIB]
IC50 [1]: 10 nM | IC50 (cells): 11 nM | IC50 [2]: 10 nM | IC50 [3]: 13 nM | inhibition in vivo at 150 mg/kg (A-375 [4]): 84% | IC50 (A-375 [5]): 15 nM

COC1=C2C[C@@H](C)C[C@H](OC)[C@H](O)[C@@H](C)/C=C(\C)[C@H](OC(N)=O)[C@@H](OC)/C=C\C=C(/C)C(=O)NC(=CC1=O)C2=O [GELDANAMYCIN]
IC50 (Bcr/Abl fusion protein [6]): 1000 to 2000 nM | IC50 (Bcr/Abl fusion protein [7]): 5000 nM | IC50 (Bcr/Abl fusion protein [8]): 1000 to 2000 nM

CCCS(=O)(=O)Nc1ccc(F)c(C(=O)c2c[nH]c3ncc(-c4ccc(Cl)cc4)cc23)c1F [VEMURAFENIB]
IC50 (A-375 [5]): 81 nM

C=CCNc1c(O)cc2c(O)c1C[C@@H](C)C[C@H](OC)[C@H](O)[C@@H](C)/C=C(\C)[C@H](OC(N)=O)[C@@H](OC)/C=C\C=C(/C)C(=O)N2.Cl [RETASPIMYCIN HYDROCHLORIDE]
Activity (Mus musculus [9]): 0.5% | GI50 (NCI-H3122): 76 nM

CCNC(=O)c1noc(-c2cc(C(C)C)c(O)cc2O)c1-c1ccc(CN2CCOCC2)cc1 [LUMINESPIB]
IC50 (HCC827): 7 nM

Cc1ccc(NC(=O)c2ccc(CN3CCN(C)CC3)cc2)cc1Nc1nccc(-c2cccnc2)n1 [IMATINIB]
Activity (Mus musculus [10]): 81.5%

C[C@@H](Oc1cc(-c2cnn(C3CCNCC3)c2)cnc1N)c1c(Cl)ccc(F)c1Cl [CRIZOTINIB]
IC50 [1]: 240 nM | IC50 [2]: 300 nM | IC50 [3]: 202 nM

CC(C)c1cc(C(=O)N2Cc3ccc(CN4CCN(C)CC4)cc3C2)c(O)cc1O [ONALESPIB]
MTD [11]: 260 mg/m2 | IC50 (GIST48): 55 nM | IC50 (GIST430): 34 nM

C=CCNC1=C2C[C@@H](C)C[C@H](OC)[C@H](O)[C@@H](C)/C=C(\C)[C@H](OC(N)=O)[C@@H](OC)/C=C\C=C(/C)C(=O)NC(=CC1=O)C2=O [TANESPIMYCIN]
MTD [12]: 75 mg/kg | IC50 (Bcr/Abl fusion protein [6]): 1000 to 2000 nM | MTD [13]: 75 mg/kg | MTD [14]: 75 mg/kg | IC50 (Bcr/Abl fusion protein [7]): 5000 nM | IC50 (Bcr/Abl fusion protein [8]): 1000 to 2000 nM

CO[C@H]1/C=C\C=C(/C)C(=O)NC2=CC(=O)C(NCCN(C)C)=C(C[C@@H](C)C[C@H](OC)[C@H](O)[C@@H](C)/C=C(\C)[C@@H]1OC(N)=O)C2=O [ALVESPIMYCIN]
IC50 [15]: 10 to 30 nM | IC50 (PC-9): 10 to 30 nM
